Reference: patent publication US20110070293A1, “Methods for the Preparation of Liposomes Comprising Docetaxel” (priority 2009, published 2011)
Like-named read-outs stand apart in the source and are kept apart here.

Assays:
[1] = Solubilization of docetaxel in fatty acid, fatty acid salt or oleate liposome media; type: physicochemical; conditions: for solubility: aqueous with cosolvent or surfactant or cyclodextrin
Experimental: (§1) Docetaxel (5 mg) was added to 31 μL of oleic acid and mixed using a VORTEX®. Ethanolamine (6 μL) was subsequently added and mixed using a VORTEX®. After mixing, the sample was dispersed in 963 μL of water for injection. Docetaxel was soluble and the formulation clear at 5 mg/mL. Docetaxel remained soluble, and the formulation was stable, upon dilution (1:10 in 2.5% glycerol) up to 24 hours as analyzed by a reverse phase high performance liquid chromatography method.
(§2) Docetaxel (5.0 mg) was added to 1 mL of 0.05 M sodium oleate and mixed using a VORTEX®. Docetaxel was soluble and the formulation clear at 5.0 mg/mL. Docetaxel remained soluble, and the formulation was stable, upon dilution (1:10 in 2.5% glycerol) up to 24 hours as analyzed by a reverse phase high performance liquid chromatography method.
as §2, with “(2” for “(5.0”, “1” for “0.05”, “caprylate” for “oleate”, “by” for “using”, “2” for “5.0”, “(1:2” for “(1:10 in”
as §2, with “(7.0” for “(5.0”, “1” for “0.05”, “linoleate” for “oleate”, “7.0” for “5.0”, “(1:10” for “(1:10 in”
(§3) Docetaxel (5 mg) was added to 1 mL of pre-made liposome containing 2 mM sodium oleate and 6% soy phosphatidyl choline, 10% trehalose, pH adjusted to 5-7 using Acetic acid, mixed using a VORTEX®, and microfluidized using a Microfluidizer with 10 passes at 15,000 psi. Five additional passes with the Microfluidizer at 15,000 psi were made to incorporate all 5 mg of the drug into 1 mL of pre-made liposome. Docetaxel was soluble and the formulation was transparent at 5 mg/mL. Docetaxel remained soluble, and the formulation was stable, upon dilution (1:10 in D5W) up to 48 hours as analyzed by a reverse phase high performance liquid chromatography method.
(§4) Hydrophobic or lipophilic compounds can be solubilized directly in sodium (or any ion) salt of fatty acid dissolved in an organic solvent. The organic solvent is subsequently removed using rotary evaporation, spray drying, or any other pharmaceutically acceptable processes. The drug-sodium salt of fatty acid mixture is subsequently dispersed in water, isotonic glycerol, or any pharmaceutically acceptable isotonic solution to achieve a desired concentration of the solubilized compound. For example, docetaxel (5 mg/mL) was dissolved in 100 mM sodium oleate in 100% ethanol. Ethanol was completely evaporated using rotary evaporation at 20° C. The docetaxel-sodium oleate was reconstituted with Water For Injection (“WFI”) or 2.5% glycerol to provide 5 mg/mL, 10 mg/mL, or 20 mg/mL concentration of docetaxel.
(§5) 50 μl of Docetaxel in ethanol (100 mg/mL) was added to 1 mL of pre-made liposome containing 2 mM sodium oleate and 6% soy phosphatidyl choline, 10% trehalose and pH adjusted to 5-7 using Acetic acid, mixed using a VORTEX® and microfluidized using a Microfluidizer with 10 passes at 15,000 psi. Docetaxel was soluble and the formulation is transparent at 5 mg/mL. Docetaxel remained soluble, and the formulation was stable, upon dilution (1:10 in D5W) up to 48 hours as analyzed by a reverse phase high performance liquid chromatography method. […] The lyophilized product is reconstituted with water for injection at 5 mg, 10, or 20 mg/mL concentration, essentially free of organic solvent.

[2] = Stability of docetaxel formulations upon dilution (reverse phase HPLC) and after lyophilization; type: physicochemical; conditions: for time docetaxel remained soluble and formulation stable upon dilution: RP-HPLC
Experimental: as §1, §2
as §2, with “(2” for “(5.0”, “1” for “0.05”, “caprylate” for “oleate”, “by” for “using”, “2” for “5.0”, “(1:2” for “(1:10 in”
as §2, with “(7.0” for “(5.0”, “1” for “0.05”, “linoleate” for “oleate”, “7.0” for “5.0”, “(1:10” for “(1:10 in”
as §3, §4, §5

[3] = Incorporation of docetaxel into liposome; type: physicochemical
Experimental: As provided herein, the sequence of the addition of docetaxel results in enhanced solubility of the docetaxel. The conventional method of incorporating a hydrophobic drug into liposome is by adding the drug to lipid before liposome preparation. See, e.g., Immordino, M. L. et al., Journal of Controlled Release, 2003, 91: 417-429. By the conventional process, the incorporation of the drug is only 0.3 to 0.7 mg/mL. When docetaxel is added after liposome preparation, the incorporation of docetaxel is increased from 0.3 mg/mL to 5 mg/mL, which is more than 10 fold increase in solubility of the drug in lipid alone.
In the conventional liposome preparation, the drug to lipid molar percent ratio is 4-6% with the incorporation of drug into liposome efficiency is only 56%. See Immordino, M. L. et al., Journal of Controlled Release, 2003, 91: 417-429.

[4] = cited from earlier work
[5] = docetaxel added to pre-made liposome
[6] = conventional liposome preparation (Immordino et al.)

- solubility ([1]; 0.05 M sodium oleate solution, Example 7: 0.05 M sodium oleate, read-out: concentration at which docetaxel was soluble and formulation clear): 5000 µg/mL
- solubility ([1]; 1 M sodium caprylate solution, Example 8: 1 M sodium caprylate, read-out: concentration at which docetaxel was soluble and formulation clear): 2000 µg/mL
- solubility ([1]; 1 M sodium linoleate solution, Example 9: 1 M sodium linoleate, read-out: concentration at which docetaxel was soluble and formulation clear): 7000 µg/mL
- concentration at which docetaxel was soluble and formulation transparent ([1]; Example 12: docetaxel in ethanol added to pre-made liposome, 2 mM sodium oleate, 6% soy phosphatidyl choline, 10% trehalose, pH 5-7): 5000 µg/mL
- solubility ([1]; Example 10: solid docetaxel in pre-made liposome, 2 mM sodium oleate, 6% soy phosphatidyl choline, 10% trehalose, pH 5-7, read-out: concentration at which docetaxel was soluble and formulation transparent): 5000 µg/mL
- solubility ([1]; oleic acid / ethanolamine dispersion in water for injection, Example 6: oleic acid, ethanolamine, water for injection, read-out: concentration at which docetaxel was soluble and formulation clear): 5000 µg/mL
- time docetaxel remained soluble and formulation stable upon dilution ([2]; Example 6: oleic acid/ethanolamine, dilution 1:10 in 2.5% glycerol): up to 24 hours
- time docetaxel remained soluble and formulation stable upon dilution ([2]; Example 7: 0.05 M sodium oleate, dilution 1:10 in 2.5% glycerol): up to 24 hours
- time docetaxel remained soluble and formulation stable upon dilution ([2]; Example 8: 1 M sodium caprylate, dilution 1:2 2.5% glycerol): up to 24 hours
- time docetaxel remained soluble and formulation stable upon dilution ([2]; Example 9: 1 M sodium linoleate, dilution 1:10 2.5% glycerol): up to 24 hours
- time docetaxel remained soluble and formulation stable upon dilution ([2]; Example 10: oleate liposome, dilution 1:10 in D5W): up to 48 hours
- time docetaxel remained soluble and formulation stable upon dilution ([2]; Example 12: oleate liposome, dilution 1:10 in D5W): up to 48 hours
- incorporation of docetaxel into liposome ([3]; docetaxel added after liposome preparation): 5 mg/mL
- increase in solubility of the drug versus lipid alone ([3]; docetaxel added after liposome preparation vs 0.3 mg/mL): more than 10 fold
- drug to lipid molar ratio [3, 5]: 8%
- efficiency of incorporation of docetaxel into liposome [3, 5]: about 100%
SMILES: CC(=O)O[C@@]12CO[C@@H]1C[C@H](O)[C@@]1(C)C(=O)[C@H](O)C3=C(C)[C@@H](OC(=O)[C@H](O)[C@@H](NC(=O)OC(C)(C)C)c4ccccc4)C[C@@](O)([C@@H](OC(=O)c4ccccc4)[C@H]21)C3(C)C [Docetaxel]
- time reconstituted docetaxel remained in solution ([2]; Example 11: docetaxel-sodium oleate reconstituted with WFI or 2.5% glycerol): 2 hours, 4 hours, 6 hours, 8 hours or 24 hours
- drug to lipid molar percent ratio [4, 6]: 4-6%
- efficiency of incorporation of drug into liposome [4, 6]: 56%
- incorporation of the drug into liposome ([4]; conventional process: drug added to lipid before liposome preparation (Immordino et al.)): 0.3 to 0.7 mg/mL
